Results taken from patent US20060110790A1, “Expression system for large functional proteins” (priority 2002, published 2006).

Assays:
Assay type in all cases: binding
[1] = biological target: T1, co-expressed N and C halves of ABCR (Homo sapiens, UniProt P78363); assay: 8-azido-ATP photoaffinity labeling of membranes from transfected cells; conditions: 1 mM ATP added prior to photoaffinity labeling; 1.5 μM 8-azido-[α-32P]ATP; C-half labeled; FIG. 5A lane 4
T1 construct: The cDNAs coding for the N-half (amino acids 1-1325) and C-half (amino acids 1326-2273) of ABCR; made in house; host or cells: COS-1 cells, co-transfected
T1 sequence (P78363 1-1325): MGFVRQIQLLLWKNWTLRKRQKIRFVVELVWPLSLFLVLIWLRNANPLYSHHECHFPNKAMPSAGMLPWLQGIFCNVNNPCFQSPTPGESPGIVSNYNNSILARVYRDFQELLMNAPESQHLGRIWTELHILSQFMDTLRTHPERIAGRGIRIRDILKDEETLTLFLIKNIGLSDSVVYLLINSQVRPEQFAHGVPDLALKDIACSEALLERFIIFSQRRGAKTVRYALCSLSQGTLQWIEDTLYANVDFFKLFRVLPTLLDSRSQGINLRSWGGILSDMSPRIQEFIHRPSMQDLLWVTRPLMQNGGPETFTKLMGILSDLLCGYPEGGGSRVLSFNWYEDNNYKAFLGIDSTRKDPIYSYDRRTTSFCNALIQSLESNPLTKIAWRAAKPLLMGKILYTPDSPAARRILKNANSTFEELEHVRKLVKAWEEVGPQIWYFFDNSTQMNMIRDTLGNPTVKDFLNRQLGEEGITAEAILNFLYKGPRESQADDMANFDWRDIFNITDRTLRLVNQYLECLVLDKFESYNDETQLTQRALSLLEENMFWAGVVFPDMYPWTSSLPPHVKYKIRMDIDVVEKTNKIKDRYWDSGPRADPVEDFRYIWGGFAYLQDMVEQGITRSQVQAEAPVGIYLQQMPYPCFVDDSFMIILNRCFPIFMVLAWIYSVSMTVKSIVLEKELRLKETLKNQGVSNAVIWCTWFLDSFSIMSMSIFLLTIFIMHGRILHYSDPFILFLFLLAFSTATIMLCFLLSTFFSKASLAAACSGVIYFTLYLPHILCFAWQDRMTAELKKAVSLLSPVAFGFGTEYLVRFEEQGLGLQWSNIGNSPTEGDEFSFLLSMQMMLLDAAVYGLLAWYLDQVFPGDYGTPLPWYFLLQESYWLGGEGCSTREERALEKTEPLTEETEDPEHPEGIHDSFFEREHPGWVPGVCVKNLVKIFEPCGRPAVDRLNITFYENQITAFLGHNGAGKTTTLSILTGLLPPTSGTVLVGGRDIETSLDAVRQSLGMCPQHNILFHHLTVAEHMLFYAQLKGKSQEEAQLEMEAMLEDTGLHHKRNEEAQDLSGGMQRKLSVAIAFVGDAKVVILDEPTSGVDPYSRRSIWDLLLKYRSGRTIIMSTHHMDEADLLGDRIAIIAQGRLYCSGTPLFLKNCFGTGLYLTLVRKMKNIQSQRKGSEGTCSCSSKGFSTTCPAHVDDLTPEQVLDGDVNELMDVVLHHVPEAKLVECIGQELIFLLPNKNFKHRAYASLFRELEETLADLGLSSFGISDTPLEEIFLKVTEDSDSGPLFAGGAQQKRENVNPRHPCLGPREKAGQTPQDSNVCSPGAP
T1 sequence (P78363 1326-2273): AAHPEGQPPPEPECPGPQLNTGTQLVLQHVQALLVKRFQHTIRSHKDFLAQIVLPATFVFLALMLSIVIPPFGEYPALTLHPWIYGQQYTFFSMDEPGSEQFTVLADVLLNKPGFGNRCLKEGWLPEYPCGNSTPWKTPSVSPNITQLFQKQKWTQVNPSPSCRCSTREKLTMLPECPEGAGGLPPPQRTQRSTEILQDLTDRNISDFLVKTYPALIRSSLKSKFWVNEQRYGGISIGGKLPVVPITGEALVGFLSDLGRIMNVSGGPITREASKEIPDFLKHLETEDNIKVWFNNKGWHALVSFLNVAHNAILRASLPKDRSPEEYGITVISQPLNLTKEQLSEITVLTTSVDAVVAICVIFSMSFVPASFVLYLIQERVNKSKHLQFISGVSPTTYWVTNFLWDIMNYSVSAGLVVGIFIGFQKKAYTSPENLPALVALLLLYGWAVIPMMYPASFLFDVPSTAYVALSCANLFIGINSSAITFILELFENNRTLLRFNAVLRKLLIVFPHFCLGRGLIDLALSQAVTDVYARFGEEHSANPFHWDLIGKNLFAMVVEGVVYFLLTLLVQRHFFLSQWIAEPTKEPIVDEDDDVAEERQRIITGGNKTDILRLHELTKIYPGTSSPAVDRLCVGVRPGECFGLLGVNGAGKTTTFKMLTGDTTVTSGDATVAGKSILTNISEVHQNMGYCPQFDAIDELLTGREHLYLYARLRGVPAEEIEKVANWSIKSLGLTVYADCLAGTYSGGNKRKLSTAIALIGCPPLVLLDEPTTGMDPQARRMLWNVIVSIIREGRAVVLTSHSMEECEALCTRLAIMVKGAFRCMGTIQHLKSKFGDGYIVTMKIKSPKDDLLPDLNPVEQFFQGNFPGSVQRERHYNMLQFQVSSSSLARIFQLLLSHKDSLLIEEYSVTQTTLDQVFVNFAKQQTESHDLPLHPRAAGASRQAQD
Procedure: (§1) FIG. 5. Azido-ATP photoaffinity labeling of the N and C halves of ABCR. A. Membranes from transfected cells expressing either full-length ABCR (lanes 1 & 2) or co-expressing the N and C halves (lanes 3 & 4) were photoaffinity labeled with 1.5 μM 8-azido-[α-^32P]ATP in the absence or presence of 1 mM ATP. The expressed protein was isolated on a Rim3F4-Sepharose matrix prior to analysis by SDS-PAGE and phosphorimage analysis. Left panel: Coomassie blue stained gel. Right panel: Azido-ATP labeling. B. Membranes from transfected cells expressing full-length ABCR, the N-half, the C-half, or both halves (NC halves) were labeled with 8-azido-[α-^32P] and isolated as above. Similar amounts of protein were loaded in each lane of the gel as judged by staining with Coomassie brilliant blue (not shown). C. Rod outer segment membranes were incubated with (+) or without (−) trypsin and subsequently labeled with azido-[α-^32P]ATP. ABCR and the associated N and C complex were purified on a Rim3F4-Sepharose matrix. Left panel: Azido-ATP labeling of the full-length ABCR (220 kDa) and the C-half (114 kDa); N-half was not labeled. Right panel: Western blots labeled for the full-length ABCR and C-half with the Rim3F4 antibody and the N-half with the Rim5B4 antibody. […]

full-length ABCR = full-length ABCR (Homo sapiens, UniProt P78363); assay: as above; parameters: Membranes from transfected cells expressing either full-length ABCR (lanes 1 & 2); expressed in transfected cells; host or cells: transfected cells (COS-1 or EBNA293); conditions: 1 mM ATP added prior to photoaffinity labeling; 1.5 μM 8-azido-[α-32P]ATP; FIG. 5A lane 2
Procedure: as §1

ABCR = biological target: T2, ABCR (Homo sapiens, UniProt P78363); assay: 8-azido-ATP/ADP nucleotide trapping in membranes from transfected cells; conditions: 800 μM orthovanadate, 5 μM 8-azido-[α-32P]ATP, 37° C.
T2 construct: Membranes from transfected cells expressing either full-length ABCR (lanes 1 & 2) or co-expressing the N and C halves; expressed in transfected cells; host or cells: transfected cells (COS-1 or EBNA293)
Procedure: FIG. 7. Nucleotide trapping by ABCR and co-expressed N and C halves. A. Effect of orthovanadate on nucleotide trapping. Membranes from transfected cells were incubated with 5 μM 8-azido-[α-^32P]ATP at 37° C., washed, and tightly bound nucleotides were UV crosslinked. Lane 1, full-length ABCR; lane 2, full-length ABCR incubated with 800 μM orthovanadate; lane 3, co-expressed N and C halves; lane 4, co-expressed N- and C-halves incubated with 800 μM orthovanadate. B. Effect of temperature and retinal on nucleotide trapping. Lane 1, full-length ABCR labeled at 0° C.; lane 2, full-length ABCR labeled at 37° C.; lane 3, full-length ABCR labeled at 37° C. in the presence of 50 μM all-trans retinal; lane 4, co-expressed N and C halves labeled at 0° C.; lane 5, co-expressed N and C halves labeled at 37° C.; lane 6, co-expressed N and C halves labeled at 37° C. in the presence of 50 μM all-trans retinal.
8-Azido-ATP Trapping—Membranes were incubated with 5 μM 8-azido-[α-^32P]ATP in 50 μl of labeling buffer with or without 800 μM sodium orthovanadate for 10 min at 37° C. All-trans retinal and 50 μM DTT were added where indicated. Binding was stopped by the addition of ice-cold 20 mM Tris-HCl, pH 7.4, the membranes were collected by centrifugation and washed one more time. Samples exposed to orthovanadate were washed in the presence of 800 μM orthovanadate. […]

Sequence of full-length ABCR (P78363 whole entry): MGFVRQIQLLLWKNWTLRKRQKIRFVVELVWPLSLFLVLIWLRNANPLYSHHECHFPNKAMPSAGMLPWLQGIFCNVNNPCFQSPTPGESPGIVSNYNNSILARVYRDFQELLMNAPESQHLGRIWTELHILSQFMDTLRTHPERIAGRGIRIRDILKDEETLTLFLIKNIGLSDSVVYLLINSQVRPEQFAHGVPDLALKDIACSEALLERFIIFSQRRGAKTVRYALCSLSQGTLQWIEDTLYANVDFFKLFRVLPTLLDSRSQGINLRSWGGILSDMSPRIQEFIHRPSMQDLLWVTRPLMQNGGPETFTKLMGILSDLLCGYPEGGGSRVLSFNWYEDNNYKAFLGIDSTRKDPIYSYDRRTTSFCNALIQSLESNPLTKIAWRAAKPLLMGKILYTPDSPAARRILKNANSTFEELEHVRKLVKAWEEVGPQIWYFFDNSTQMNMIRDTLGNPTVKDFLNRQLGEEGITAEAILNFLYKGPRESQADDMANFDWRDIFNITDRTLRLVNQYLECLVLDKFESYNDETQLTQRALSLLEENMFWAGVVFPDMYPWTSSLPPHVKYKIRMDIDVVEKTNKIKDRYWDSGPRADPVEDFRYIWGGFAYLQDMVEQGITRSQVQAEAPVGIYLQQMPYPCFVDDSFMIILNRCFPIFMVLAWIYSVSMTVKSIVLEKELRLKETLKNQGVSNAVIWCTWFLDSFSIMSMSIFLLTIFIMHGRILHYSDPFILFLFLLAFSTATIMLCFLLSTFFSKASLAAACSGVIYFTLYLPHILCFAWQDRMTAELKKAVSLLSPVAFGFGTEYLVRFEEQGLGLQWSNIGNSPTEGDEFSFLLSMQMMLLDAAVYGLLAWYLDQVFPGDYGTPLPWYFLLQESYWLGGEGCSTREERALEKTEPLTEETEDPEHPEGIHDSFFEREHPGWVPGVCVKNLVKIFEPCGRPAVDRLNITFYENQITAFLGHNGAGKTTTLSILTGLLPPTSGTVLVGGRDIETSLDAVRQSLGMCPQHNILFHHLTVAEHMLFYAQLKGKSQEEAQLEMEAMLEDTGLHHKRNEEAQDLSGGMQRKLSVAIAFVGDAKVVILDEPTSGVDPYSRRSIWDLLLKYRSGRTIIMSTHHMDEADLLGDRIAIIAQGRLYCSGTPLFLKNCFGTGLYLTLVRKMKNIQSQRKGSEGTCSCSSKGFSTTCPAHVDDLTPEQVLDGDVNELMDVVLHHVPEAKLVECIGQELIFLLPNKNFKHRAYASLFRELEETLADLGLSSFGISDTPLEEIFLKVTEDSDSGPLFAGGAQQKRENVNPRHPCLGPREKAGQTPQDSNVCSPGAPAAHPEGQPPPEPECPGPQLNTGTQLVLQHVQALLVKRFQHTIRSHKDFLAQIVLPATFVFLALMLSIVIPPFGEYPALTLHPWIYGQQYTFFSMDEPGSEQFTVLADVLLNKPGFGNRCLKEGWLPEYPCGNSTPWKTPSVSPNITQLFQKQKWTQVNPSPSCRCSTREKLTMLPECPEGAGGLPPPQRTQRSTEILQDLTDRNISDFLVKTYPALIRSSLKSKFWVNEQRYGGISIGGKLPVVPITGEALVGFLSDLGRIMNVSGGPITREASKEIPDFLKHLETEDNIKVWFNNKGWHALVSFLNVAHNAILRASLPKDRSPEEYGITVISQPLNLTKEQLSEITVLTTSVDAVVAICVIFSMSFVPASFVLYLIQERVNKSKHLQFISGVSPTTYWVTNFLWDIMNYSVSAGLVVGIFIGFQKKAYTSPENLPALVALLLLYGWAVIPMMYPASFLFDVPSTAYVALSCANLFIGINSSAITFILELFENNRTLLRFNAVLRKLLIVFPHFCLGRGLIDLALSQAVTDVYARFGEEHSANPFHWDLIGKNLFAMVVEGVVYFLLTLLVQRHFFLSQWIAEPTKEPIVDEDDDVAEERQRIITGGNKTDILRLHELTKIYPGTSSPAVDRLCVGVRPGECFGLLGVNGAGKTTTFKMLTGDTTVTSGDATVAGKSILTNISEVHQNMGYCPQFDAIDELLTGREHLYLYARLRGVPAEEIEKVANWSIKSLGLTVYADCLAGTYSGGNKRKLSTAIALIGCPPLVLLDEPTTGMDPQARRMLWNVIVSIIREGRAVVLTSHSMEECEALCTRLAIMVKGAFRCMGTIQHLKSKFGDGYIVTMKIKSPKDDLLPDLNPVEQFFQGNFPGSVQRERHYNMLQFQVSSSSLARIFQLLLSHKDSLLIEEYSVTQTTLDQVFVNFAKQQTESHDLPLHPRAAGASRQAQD
T2 sequence (P78363 whole entry): as above

SMILES	effect on 8-azido-ATP labeling [1]	effect on 8-azido-ATP labeling (full-length ABCR)	effect on 8-azido ATP/ADP trapping (ABCR)
Nc1ncnc2c1ncn2[C@@H]1O[C@H](COP(=O)(O)OP(=O)(O)OP(=O)(O)O)[C@@H](O)[C@H]1O [ATP]	essentially abolished	essentially abolished	
[Na+].[Na+].[Na+].[O]=[V]([O-])([O-])[O-] [sodium orthovanadate]			not dependent
